Experimental data from patent US10544131B2, “MCL-1 antagonists” (The Regents of the University of California, priority 2014, dated 2020).
“Also recorded” adds a separate entry of the source.

What was measured:
[1] = system: Bak; assay: liposome assay with Bak-loaded proteoliposomes lacking Mcl-1; type: biochemical; details: Bak loaded proteoliposomes without Mcl-1
Protocol: (§1) Synthetic 3, along with numerous intermediates and their derivatives were assayed in a model system for mitochondrial outer membrane permeabilization (MOMP). This liposome based experiment recapitulates a signaling axis involving pro-apoptotic Bak, anti-apoptotic Mcl-1, and an active, truncated 15 kDa subunit of the pro-death protein Bid (tBid).^11 Bak and Mcl-1 are transmembrane proteins constitutively anchored in the mitochondrial outer membrane. tBid translocates to mitochondria upon cleavage of Bid by caspase-8 and stimulates MOMP by directly activating free Bak and by disengaging any activated Bak from Mcl-1. Applicants' assay mimics these events using recombinant, lipidated Mcl-1 and Bak that are constitutively bound to unilamellar liposomes encapsulating calcein dye. tBid addition initiates Bak homo oligomerization and pore formations, which in turn results in calcein release and a fluorescence signal. Mcl-1 counters this tBid dependent activation of Bak, which is overcome by small molecule Mcl-1 antagonists (FIG. 6).
(§2) Recombinant Mcl-1 was expressed and purified from E. coli.
(§3) Moreover, when Mcl-1 was replaced with Bcl-xL in the assay, 12 also had no effect (FIG. 10). […] Toxic thrombocytopenia caused by ABT-737 in vivo has been correlated with Bcl-xL inhibition.^25

[2] = target: Bcl-xL (Homo sapiens, UniProt Q07817); assay: liposome assay with Bcl-xL in place of Mcl-1; type: biochemical
Chain of Bcl-xL (Q07817 whole entry, species assumed): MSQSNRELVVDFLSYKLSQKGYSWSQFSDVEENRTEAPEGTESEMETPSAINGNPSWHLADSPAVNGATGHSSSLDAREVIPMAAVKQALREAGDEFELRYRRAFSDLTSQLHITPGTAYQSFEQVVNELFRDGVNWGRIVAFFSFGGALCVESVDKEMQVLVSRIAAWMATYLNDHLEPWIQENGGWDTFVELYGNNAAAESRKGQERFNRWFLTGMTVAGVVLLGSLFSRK
Source text: as §3

[3] = target: T1, recombinant Mcl-1 (Homo sapiens, UniProt Q07820); assay: isothermal titration microcalorimetry (ITC) with purified recombinant Mcl-1; type: binding; details: for binding / affinity for Mcl-1 measurable by ITC: purified recombinant Mcl-1, in words
T1 construct: made in house; host or cells: E. coli
T1 sequence (Q07820 whole entry): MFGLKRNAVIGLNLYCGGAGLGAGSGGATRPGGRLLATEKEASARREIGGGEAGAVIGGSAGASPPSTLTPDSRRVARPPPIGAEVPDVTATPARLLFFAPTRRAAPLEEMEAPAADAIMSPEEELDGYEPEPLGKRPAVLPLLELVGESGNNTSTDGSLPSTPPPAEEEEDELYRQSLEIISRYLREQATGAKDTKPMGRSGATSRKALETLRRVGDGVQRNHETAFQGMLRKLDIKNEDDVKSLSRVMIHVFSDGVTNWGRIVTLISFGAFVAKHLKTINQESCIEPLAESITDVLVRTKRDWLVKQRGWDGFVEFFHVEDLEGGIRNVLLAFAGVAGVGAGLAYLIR

[4] = system: Mcl-1/Bak PPI; assay: liposome functional assay for Mcl-1/Bak (calcein release, MOMP model); type: biochemical; details: in words
Source text: The Shore lab has developed a functional assay utilizing recombinant proteins anchored in artificial liposomes that enables the evaluation of small-molecules to disrupt the Mcl-1/Bak PPI (FIG. 2A). In this assay, full-length functional single cysteine mutants of Mcl-1 and Bak were anchored into lipids (with PE's) utilizing the engineered cysteine residues as a handle. This allows Applicants to recapitulate Bak-mediated mitochondrial permeabilization and measure the various protein-protein and protein-membrane interactions involved in Mcl-1 regulation of Bak. The release of calcenin (Cn) dye encapsulated in the liposome was used to quantify membrane permeabilization. When the system is untreated, Mcl-1 sequesters Bak by engaging its BH3 domain. Incubation with an active inhibitor neutralizes Mcl-1. This triggers Bak auto-oligomerization resulting in the formation of pores in the lipid membrane and release of Cn. By measuring […] from Cn, Applicants can quantify antagonism of Mcl-1 in real time.
as §1

[5] = stability of the neat substance; type: physicochemical; details: in words
[6] = in vivo toxicity (minimum toxic dose)
[7] = system: Ep-myc (myr) Akt lymphoma cells; assay: mouse lymphoma model with and without doxorubicin, tumor-free survival; type: in vivo, C57BL/6 mice
Protocol: C57BL/6 mice were tail-vein injected with Ep-myc (myr) Akt lymphoma cells and palpable tumors (multiple sites per animal) allowed to develop. Animals were randomized for tumor burden and treated by intraperitoneal (IP) injection with vehicle, or vehicle containing obatoclax (10 mg/kg) or JHF3056 (40 mg/kg) daily×5. In addition, animals received a single injection of doxorubicin (IP, 10 mg/kg) on day 2 of the injection regimen, either alone or in combination with the obatoclax (9) or JHF3056 (10) regimen. Animals were allowed to become tumor-free (no observable palpable tumors) and then tumor-free survival was measured (time to re-appearance of tumors).

[8] = system: human KMS-11 cells; assay: cytotoxicity in cell culture, KMS-11; type: cell-based; details: 1.0 μM concentration
[9] = system: human KMS-11 myeloid leukemia cells; assay: cytotoxicity in cell culture, KMS-11; type: cell-based; details: KMS-11 cells, single dose, in words
[10] = system: truncated Bid; assay: binding to truncated Bid; details: data not shown
Source text: as §2

| Kd ([3]; purified recombinant Mcl-1) | binding / affinity for Mcl-1 measurable by ITC [3] | SMILES | calcein release from liposomes lacking Mcl-1 [1] | MOMP-like pore formation in liposomes containing Bcl-xL [2] | antagonism of Mcl-1 / Bak-mediated permeabilization of liposomal membranes [4] | stability [5] | stability ([5]; listed as 5) | minimum toxic dose ([6]; in vivo) | toxicity at pharmacologically relevant doses ([6]; in words) | anti-tumor activity in combination with doxorubicin ([7]; JHF3056 40 mg/kg IP daily×5, doxorubicin 10 mg/kg IP day 2) | anti-tumor activity in combination with doxorubicin ([7]; JHF3056 40 mg/kg IP daily×5, doxorubicin 10 mg/kg IP day 2, listed as 10) | cytotoxic activity relative to obatoclax [8] | cytotoxicity [9] | cytotoxicity ([9]; listed as 10) | binding / affinity for Mcl-1 measurable by ITC ([3]; listed as 5) | antagonism of Mcl-1 / Bak-mediated permeabilization of liposomal membranes ([4]; listed as 5) | antagonism of Mcl-1 / Bak-mediated permeabilization of liposomal membranes ([4]; listed as 10) | binding to truncated Bid [10] |
| --- | --- | --- | --- | --- | --- | --- | --- | --- | --- | --- | --- | --- | --- | --- | --- | --- | --- | --- |
| 700 ± 120 nM | strong, saturable binding | COc1cc(-c2c(Cl)ccn2S(=O)(=O)c2ccc(C)cc2)oc1-c1nnn[nH]1 [Compound 12] | did not release calcein dye | no effect; also recorded: did not stimulate MOMP-like pore formations | stimulate Bak-mediated permeabilization of liposomal membranes; also recorded: successfully drove pore formations; also recorded: exceeded that of 5 and obatoclax |  |  |  |  |  |  |  |  |  |  |  |  |  |
|  |  | COc1cc(-c2c(Cl)ccn2S(=O)(=O)c2ccc(C)cc2)oc1C(C)=O [JHF3056, 1-(5-(3-chloro-1-tosyl-1H-pyrrol-2-yl)-3-methoxyfuran-2-yl)ethan-1-one] | did not induce release of calcein |  | capacity to antagonize the Mcl-1/Bak PPI; also recorded: directly antagonizes Mcl-1; also recorded: superior performance of JHF3056 (10) relative to 8 and 9 | stable solid | bench stable solid | 80 mg/kg | nontoxic at pharmacologically relevant doses | sensitizes lymphoma tumor xenografts to doxorubicin | clear anti-tumor activity in combination with the chemotherapeutic doxorubicin | enhanced activity relative to obatoclax (9) | cytotoxic at micromolar concentrations; also recorded: sub-micromolar cytotoxicity | sub-micromolar single dose cytotoxicity | Neither 2 nor 5 demonstrated measurable affinity | counter Mcl-1 activity and promote Bak-mediated permeabilization of liposomal membranes; also recorded: near equipotent to 4 | promising activity | no binding |
|  |  | COc1cc(-c2[nH]ccc2Cl)oc1C1=C2N=C3C=C2[C@H](C(C)C)[C@H]1CCCCCCCC3 [roseophilin, reference compound] |  |  | little activity |  |  |  |  |  |  |  |  |  |  |  |  |  |
